Drawing on US20080275035A1 (priority 2005, published 2008), this text covers melting point and MIC for 15 molecules.

Each structure is given as a SMILES string. Converted amounts (≈) assume the structure as drawn.

For series [1], the system named is Mycobacterium tuberculosis H37Rv (ATCC 27294). The series is described as follows: microbe, parasite or virus in culture. The class given is cell-based.

Broadly, the melting point is the temperature, or range, at which the solid turns liquid. Molecule `O=[N+]([O-])c1cn2c(n1)OC[C@@H](OCc1csc(-c3ccc(OC(F)(F)F)cc3)n1)C2` displayed a melting point of 140 to 141 °C.

`O=[N+]([O-])c1cn2c(n1)OC[C@@H](OCc1nc3ccc(C(F)(F)F)cc3[nH]1)C2` registered a melting point of 120 to 121 °C.

As to `O=[N+]([O-])c1cn2c(n1)OC[C@@H](OCc1nc3ccc(OC(F)(F)F)cc3[nH]1)C2`, the melting point was in the range of 99 to 100 °C.

Take `O=C(CO[C@@H]1COc2nc([N+](=O)[O-])cn2C1)Nc1ccc(OC(F)(F)F)cc1`: the melting point was 157 to 158 °C.

`O=C(CO[C@@H]1COc2nc([N+](=O)[O-])cn2C1)NCc1ccc(OC(F)(F)F)cc1` registered a melting point of 110 to 111 °C.

As to `O=C(CO[C@@H]1COc2nc([N+](=O)[O-])cn2C1)Nc1nc(-c2ccc(OC(F)(F)F)cc2)cs1`, the melting point lay in the range of 120 to 121 °C.

In turn, `O=C(CO[C@@H]1COc2nc([N+](=O)[O-])cn2C1)N1CCN(c2ccc(OC(F)(F)F)cc2)CC1` showed a melting point of 77 to 79 °C.

`O=C(CO[C@@H]1COc2nc([N+](=O)[O-])cn2C1)N1CCN(c2ccc(F)cc2)CC1`: the melting point lay within 73 to 74 °C.

On to `O=C(CO[C@@H]1COc2nc([N+](=O)[O-])cn2C1)N1CCN(c2ccc(C(F)(F)F)cn2)CC1`, for which the melting point was 189 to 190 °C.

As to `O=C(CO[C@@H]1COc2nc([N+](=O)[O-])cn2C1)N1CCC(c2nc3cc(OC(F)(F)F)ccc3[nH]2)CC1`, the melting point lay within 131 to 132 °C.

`O=[N+]([O-])c1cn2c(n1)OC[C@@H](OCc1ccc(-c3nc4cc(OC(F)(F)F)ccc4[nH]3)cc1)C2` registered a melting point of 98 to 99 °C.

Turning to `O=[N+]([O-])c1cn2c(n1)OCC(OCc1ccc(-c3nc4cc(OC(F)(F)F)ccc4o3)cc1)C2` (stereo not drawn), the melting point fell in the range of 187 to 188 °C.

In the case of `O=[N+]([O-])c1cn2c(n1)OCC(OCc1ccc(OCc3ccc(F)cc3)cc1)C2` (stereo not drawn), the melting point was 150.2 to 150.9 °C.

On to `O=C(CO[C@@H]1COc2nc([N+](=O)[O-])cn2C1)Nc1nc2ccc(OC(F)(F)F)cc2s1` (stereo in doubt), for which the melting point lay within 89 to 90 °C.

`[H]/N=C(/N)N[C@H]1[C@H](O)[C@@H](O)[C@H](O[C@@H]2O[C@@H](C)[C@](O)(C=O)[C@H]2O[C@@H]2O[C@@H](CO)[C@H](O)[C@@H](O)[C@@H]2NC)[C@@H](N/C(N)=N\[H])[C@@H]1O` [streptomycin] yielded an MIC in series [1] of 0.25 µg/mL (≈ 0.43 µM).
